Test results published in patent US9102919B2, “WNT pathway stimulation in reprogramming somatic cells with nuclear reprogramming factors” (Whitehead Institute for Biomedical Research, priority 2007, dated 2015).

Tests used:
GSK3 = details: cited from earlier work
26 other kinases = details: cited from earlier work
[1] = system: MEFs overexpressing Oct4/Sox2/Klf4/c-Myc; test: G418-resistant colony formation in four-factor MEFs; type: cell-based, mouse
Protocol: (§1) Cell culture, viral infections, induction of gene expression. Cells were cultured in 15% FBS, DMEM-KO, Penn/Step, Glutamine, Nonessential amino acids, β-ME, and LIF. Mouse embryo fibroblasts (MEFs) with an Oct4-IRES-eGFP construct (Meissner, A., et al., Nature Biotechnology, Direct reprogramming of genetically unmodified fibroblasts into pluripotent stem cells. Published online: 27 Aug. 2007|doi:10.1038/nbt1335) inserted into the endogenous Oct4 locus were infected with lentiviral vectors driving the doxycycline-inducible expression of Oct4, Sox2, Klf4 and c-Myc or only Oct4, Sox2, and Klf4. The vectors were based on the FUGW lentiviral vector backbone (Lois C, et al., Science 2002; 295: 868-872.), modified to include a tet-inducible promoter. Two days following infection cells were split and induced with doxycycline in the presence or absence of Wnt3a conditioned media (used in a 1:1 dilution with normal ES media with 2×LIF). These cells were monitored for GFP expression by flow cytometry at day 13 and again at day 20. In parallel, MEFs with doxycycline-inducible Oct4 expressed from the collagen locus and Oct4-IRES-(neo resistance) inserted into the endogenous Oct4 locus were infected with lentiviruses driving the overexpression of either Sox2, Klf4 and c-Myc or Sox2 and Klf4. Again, two days following infection cells were split and induced with doxycycline in the presence or absence of Wnt3a conditioned media. […] Following at least one week of G418 selection, resistant colonies were examined and counted.
Conditioned medium. Wnt 3a conditioned media (CM) was collected from mouse L cells that had been transfected with Wnt3a cDNA (Shibamoto et al. 1998). These cells are available through ATCC(CRL-2647) along with the untransfected parent cell line (CRL-2648) to use for control conditioned medium. […]
We hypothesized that stimulation of the stimulation of the Wnt pathway using soluble factors could modulate the efficiency of inducing pluripotency in somatic cells. […] GFP expression was analyzed by FACS on day 13 and 20. […] Surviving colonies were counted on day 20. […]

[2] = system: MEFs over-expressing Oct4/Sox2/Klf4; test: G418-resistant colony formation in three-factor (Myc[-]) MEFs; type: cell-based, mouse; details: 4 μM; three factors in Wnt3a-CM; G418 day 15; scored day 28
Protocol: as §1, with “20.” for “20. In parallel, MEFs with doxycycline-inducible Oct4 expressed from the collagen locus and Oct4-IRES-(neo resistance) inserted into the endogenous Oct4 locus were infected with lentiviruses driving the overexpression of either Sox2, Klf4 and c-Myc or Sox2 and Klf4. Again, two days following infection cells were split and induced with doxycycline in the presence or absence of Wnt3a conditioned media.”, “counted. […]” for “counted.”
We hypothesized that stimulation of the stimulation of the Wnt pathway using soluble factors could modulate the efficiency of inducing pluripotency in somatic cells. […] GFP expression was analyzed by FACS on day 13 and 20. […]

Cdk-1/cyclin B = Cdk-1/cyclin B (Homo sapiens, UniProt P06493); details: at >100 μM; cited from earlier work
Chain of Cdk-1/cyclin B (P06493 whole entry, species assumed): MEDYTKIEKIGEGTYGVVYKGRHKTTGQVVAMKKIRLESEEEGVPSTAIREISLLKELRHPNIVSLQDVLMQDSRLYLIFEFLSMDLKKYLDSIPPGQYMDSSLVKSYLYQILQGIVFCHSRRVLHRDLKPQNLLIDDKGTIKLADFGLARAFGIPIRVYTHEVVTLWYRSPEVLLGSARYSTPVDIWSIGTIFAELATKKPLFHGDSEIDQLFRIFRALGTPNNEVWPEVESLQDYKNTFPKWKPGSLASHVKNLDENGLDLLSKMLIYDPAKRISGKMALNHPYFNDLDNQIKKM
Chain of Cdk-1/cyclin B (P14635 whole entry partner, species assumed): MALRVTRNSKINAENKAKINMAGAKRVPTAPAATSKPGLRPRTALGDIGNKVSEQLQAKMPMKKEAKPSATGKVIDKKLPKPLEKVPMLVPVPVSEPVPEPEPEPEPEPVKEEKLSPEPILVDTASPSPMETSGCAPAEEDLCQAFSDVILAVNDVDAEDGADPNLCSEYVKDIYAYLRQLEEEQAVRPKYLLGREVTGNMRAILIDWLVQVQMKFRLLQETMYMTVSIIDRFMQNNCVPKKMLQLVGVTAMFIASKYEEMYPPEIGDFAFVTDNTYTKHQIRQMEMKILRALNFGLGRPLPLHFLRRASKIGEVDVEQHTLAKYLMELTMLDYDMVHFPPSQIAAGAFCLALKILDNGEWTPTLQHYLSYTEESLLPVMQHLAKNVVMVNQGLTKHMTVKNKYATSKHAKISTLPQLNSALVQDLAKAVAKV

CK-II = details: at >100 μM; cited from earlier work
PKA = details: at >100 μM; cited from earlier work
PKC = details: at >100 μM; cited from earlier work
histone deacetylase = details: cited from earlier work

COc1ccc(CNC(=O)Nc2ncc([N+](=O)[O-])s2)cc1 [AR-A014418, N-(4-Methoxybenzyl)-N′-(5-nitro-1,3-thiazol-2-yl)urea]
Ki (GSK3): […] | inhibition of other kinases (26 other kinases): does not significantly inhibit

O=C1[C@H](Cc2ccc(O)cc2)N2C(=O)CCN(C(=O)NCc3ccccc3)[C@H]2CN1Cc1cccc2ccccc12 [ICG-001]
effect on number of G418 colonies in c-Myc transduced cells ([1]; 4 μM, four factors in Wnt3a-CM, selection day 10, assessed day 20): only a subtle effect | iPS colonies ([1]; 25 μM, four factors (data not shown)): multiple Oct4/Sox2/Klf4/c-Myc iPS colonies were observed | iPS colony numbers ([1]; higher doses than 4 μM, four factors (data not shown)): further reduced | effect on Wnt3a-CM promoted Myc[-] iPS formation [2]: strongly inhibited

Cn1sc(=O)n(Cc2ccccc2)c1=O [TDZD-8, 4-Benzyl-2-methyl-1,2,4-thiadiazolidine-3,5-dione]
inhibition (Cdk-1/cyclin B): does not inhibit | inhibition (CK-II): does not inhibit | inhibition (PKA): does not inhibit | inhibition (PKC): does not inhibit

CC(/C=C/C(=O)NO)=C\[C@@H](C)C(=O)c1ccc(N(C)C)cc1 [Trichostatin A, [R-(E,E)]-7-[4-(Dimethylamino)phenyl]-N-hydroxy-4,6-dimethyl-7-oxo-2,4-heptadienamide]
inhibition of histone deacetylase (histone deacetylase): inhibits histone deacetylase at nanomolar concentrations
